How the values were obtained:
normal rats = assay: Blood glucose in normal rats, transdermal; assay type: in vivo; details: no fasting; for Blood glucose, normal rats, Baseline: baseline of the treatment group
[1] = test system: SLAC:NOD-IDDM mice, type 1 diabetes; assay: Blood glucose in type 1 diabetic mice, transdermal; assay type: in vivo; details: no fasting; for Blood glucose, type I diabetic mice, Baseline: baseline of the treatment group; for Blood glucose, type I diabetic mice, Average: transdermal, equal to 20 mg/kg of NSAIAs once per day for 7 weeks, fourth to seventh week
Description: The pro-drugs in this invention lower blood glucose levels in mouse models (SLAC:NOD-IDDM, type 1 diabetes, n=7). 20% acetone solution of diethylaminoethyl acetylsalicylate.acetylsalicylic acid salt (P-1, in acetone); 4-acetamidophenyl salicylyldimethylaminobutyrate.HCl (P-6), diethylaminoethyl 5-(2,4-difluorophenyl) acetylsalicylate.5-(2,4-difluorophenyl) acetylsalicylic acid salt (P-8), diethylaminoethyl salicylsalicylate.AcOH (P-9), diethylaminoethyl salicylate.AcOH (P-10), diethylaminoethyl 5-acetamido-acetylsalicylate (P-58), diethylaminoethyl acetylsalicylsalicylate. acetylsalicylsalicylic acid salt (P-59), diethylaminoethyl acetylsalicylsalicylate. acetylsalicylsalicylsalicylic acid salt (P-60) (equal to of 20 mg/kg of NSAIAs) were administered transdermally to the backs (about 1 cm^2) of mice (fur was shaved) once per day (at 8 am) for 7 weeks. The blood glucose levels were measured once every 3 days at 3 pm (no fasting) from the fourth week to the seventh week.

Chinese White rabbits = assay: Autologous blood clot pulmonary embolism model, thrombus propagation; assay type: in vivo; details: 15 mg/kg topically on the back; after 2 days
Description: Eighteen Chinese White rabbits weighing between 3.0 and 3.5 kg (aged 6-7 months) were selected and divided into three groups (control, P-1 and […] groups, n=6). One hour before the experiment, thrombi were made by aspirating venous blood (1 ml) into a sterilized bottle to clot. To avoid fragmentation and slow lysis, the autologous blood clots were stabilized in temperature-controlled (70° C.) distilled water for 10 min. After anesthesia, the femoral veins were exposed and distally isolated, and autologous blood clots (0.05 g/kg) were injected through an indwelling catheter (20GA), which had been placed in the femoral vein isolated earlier. 50% acetone solution of diethylaminoethyl acetylsalicylate.acetylsalicylic acid salt (P-1, in acetone, 15 mg/kg) and diethylaminoethyl acetylsalicylsalicylate.acetylsalicylsalicylic acid salt (P-59, 15 mg/kg) were topically applied to the back of the rabbits. After 2 days, rabbits were euthanized with an excessive intravenous injection of sodium amobarbital (60 mg/kg). The lungs and hearts were isolated to observe whether thrombi were present in the pulmonary arteries. The lungs were immersed in 10% formalin for 24 h. Consecutive transverse sections along the obstructed pulmonary arteries were paraffin-embedded and stained with hematoxylin-eosine. […]

[2] = test system: SLAC/GK rats, type 2 diabetes; assay: Blood lipid levels in type 2 diabetic rats, transdermal; assay type: in vivo
Description: (§1) The pro-drugs in this invention lower blood glucose levels in rat models (SLAC/GK, type 2 diabetes, n=7). 50% acetone solution of diethylaminoethyl acetylsalicylate.acetylsaficylic acid salt (P-1, in acetone); 4-acetamidophenyl salicylyldimethylaminobutyrate.HCl (P-6), diethylaminoethyl 5-(2,4-difluorophenyl) acetylsalicylate.5-(2,4-difluorophenyl) acetylsalicylic acid salt (P-8), diethylaminoethyl salicylsalicylate.AcOH (P-9), diethylaminoethyl salicylate.AcOH (P-10), diethylaminoethyl 5-acetamido-acetylsalicylate (P-58), diethylaminoethyl acetylsalicylsalicylate. acetylsalicylsalicylic acid salt (P-59), diethylaminoethyl acetylsalicylsalicylate. acetylsalicylsalicylsalicylic acid salt (P-60) (equal to of 20 mg/kg of NSAIAs) were administered transdermally to the backs (about 1.5 cm^2) of rats (fur was shaved) once per day (at 8 am) for 5 weeks. The blood glucose levels were measured once every 3 days at 4 pm (no fasting) from the second week to the fifth week. The blood lipid levels were measured at the end of the fifth week.

[3] = test system: SLAC/GK rats, type 2 diabetes; assay: Blood glucose in type 2 diabetic rats, transdermal; assay type: in vivo; details: no fasting; for Blood glucose, diabetic rats, Baseline: baseline of the treatment group
Description: as §1

[4] = prodrug versus testosterone (TS); cited from earlier work

Structure (SMILES)	Blood glucose, normal rats, Baseline (normal rats) [mmol/L]	Blood glucose, normal rats, Average (normal rats; transdermal, equal to 20 mg/kg of NSAIAs once per day for 5 weeks, second to fifth week) [mmol/L]	Blood glucose, type I diabetic mice, Baseline [1] [mmol/L]	Blood glucose, type I diabetic mice, Average [1] [mmol/L]	Histology of lung tissue and vascular walls after clot injection (Chinese White rabbits)	Triglycerides, Baseline ([2]; baseline of the treatment group) [mmol/L]	Blood glucose, diabetic rats, Baseline [3] [mmol/L]	Triglycerides, Average ([2]; end of fifth week, transdermal, equal to 20 mg/kg of NSAIAs once per day) [mmol/L]	Blood glucose, diabetic rats, Average ([3]; transdermal, equal to 20 mg/kg of NSAIAs once per day for 5 weeks, measured every 3 days, second to fifth week) [mmol/L]	Diffusion through human skin, times faster than the drug (TS) itself [4] [times]
CC(=O)Oc1ccccc1C(=O)O.CCN(CC)CCOC(=O)c1ccccc1OC(C)=O [P-1, diethylaminoethyl acetylsalicylate.acetylsalicylic acid salt]	6.4 ± 1	6.3 ± 1	26.1 ± 5	6.5 ± 1	both lung tissue and vascular walls were normal	5.9 ± 0.5	16.1 ± 3			
CC(=O)Oc1ccccc1C(=O)Oc1ccccc1C(=O)O.CCN(CC)CCOC(=O)c1ccccc1OC(=O)c1ccccc1OC(C)=O [P-59, diethylaminoethyl acetylsalicylsalicylate. acetylsalicylsalicylic acid salt]	7.2 ± 1		24.3 ± 3	8.7 ± 1	both lung tissue and vascular walls were normal		16.3 ± 3	2.9 ± 0.2	8.7 ± 1	
CN(C)CCCC(=O)O[C@H]1CC[C@H]2[C@@H]3CCC4=CC(=O)CC[C@]4(C)[C@H]3CC[C@]12C.Cl [TSBH, testosteronyl-4-dimethylaminobutyrate.HCl]										~60

Source: patent US10233198B2, “Pro-drugs of NSAIAs with very high skin and membranes penetration rates and their new medicinal uses” (Techfields Pharma Co., Ltd., priority 2007, dated 2019)
